Target: Mu-type opioid receptor (Homo sapiens, UniProt P35372)
Assay: Mu Opioid Receptor Binding Assay and Antagonist Functionality Assay
Settings: pH 7.4; 22 °C
Experimental: In the binding assays, the results were expressed as percent inhibition of the control radioligand specific binding. The IC50 values (concentration causing a half maximal inhibition of control specific binding) were determined by non-linear regression analysis of the competition curves using Hill equation curve fitting. The inhibition constants (Ki) were calculated from the Cheng Prusoff equation. EC50/IC50 measures the antagonist activities on mu-agonist triggered luminescence in AequoScreen cells.

Chain of Mu-type opioid receptor (P35372 whole entry): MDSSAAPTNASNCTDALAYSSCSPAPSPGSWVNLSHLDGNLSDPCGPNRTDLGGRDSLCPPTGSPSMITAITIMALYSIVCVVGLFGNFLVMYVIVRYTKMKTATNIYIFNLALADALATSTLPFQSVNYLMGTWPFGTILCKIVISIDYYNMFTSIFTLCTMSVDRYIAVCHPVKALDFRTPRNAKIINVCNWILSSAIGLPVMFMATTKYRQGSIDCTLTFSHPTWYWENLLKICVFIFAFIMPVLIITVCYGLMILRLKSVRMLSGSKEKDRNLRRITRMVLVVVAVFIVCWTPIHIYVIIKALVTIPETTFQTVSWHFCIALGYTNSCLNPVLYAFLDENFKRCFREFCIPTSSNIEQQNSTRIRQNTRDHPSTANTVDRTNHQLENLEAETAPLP

SMILES	EC50 [µM]
CC(C)N[C@H]1CCn2c(=O)[nH]c3cccc(c32)[C@@H]1O [(9S,10S)-9-hydroxy-10-(propan-2-ylamino)-1,3-diazatricyclo[6.4.1.0^{4,13}]trideca-4(13),5,7-trien-2-one]	140
CC(C)N[C@@H]1CCn2c(=O)[nH]c3cccc(c32)[C@H]1O [(9R,10R)-9-hydroxy-10-(propan-2-ylamino)-1,3-diazatricyclo[6.4.1.0^{4,13}]trideca-4(13),5,7-trien-2-one]	> 1000
